Data as given in a melting point compilation (Tetko et al.; mined from patent text by program, amines drawn as free bases though some values may be those of a salt).

Row | Structure (SMILES) | melting point
1 | CCOC(=O)C1=C(C)NN=C(C(=O)OC)C1c1cccc(Cl)c1 (centres undefined) | 139 °C
2 | O=c1oc2ccccc2c(O)c1C1CC(c2ccc(Oc3ccc(-c4ccc(Cl)cc4)cc3)cc2)Cc2ccccc21 (centres undefined) | 132 °C
3 | C=C[C@@H]1O[C@](/C=C/C2CC2)(C(F)(F)F)c2cc(Cl)ccc2NC1=O (relative stereo) | 166 °C
4 | c1ccc(COc2cccc(OCc3ccccc3)c2OCc2ccccc2)cc1 | 67 to 68 °C
5 | Cn1c(C(F)(F)F)cc(C#N)c1-c1ccc(Cl)c(Cl)c1 | 130 °C
6 | O=C1c2ccc([N+](=O)[O-])cc2C(=O)N1c1ccc(C2(c3ccc(N4C(=O)c5ccc([N+](=O)[O-])cc5C4=O)cc3)c3ccccc3-c3ccccc32)cc1 | 360 to 363 °C
7 | Cc1nc2ccc(Cl)cc2c(=O)n1CCCn1ccnc1 | 190 to 192 °C
8 | O=C(NC(=O)c1ccccc1Cl)Nc1cc(Cl)c2c(c1)C(F)(F)C(F)(F)S2 | 140 to 142 °C
9 | CCCCCCCCCCCCS(=O)(=O)c1c(O)cc(C)oc1=O | 78 to 79 °C
10 | COc1ccc(C(=O)CCCCCl)cc1S(=O)(=O)NC(C)C | 122 to 124 °C
11 | BrCCCCOc1ccc2c(ccn2-c2ccc(Br)cc2)c1 | 80 to 81 °C
12 | Cn1nc(C(F)F)c(C=O)c1F | 68 °C
13 | CCCC1(C)C(=O)NC(=O)N1c1ccc(C)cc1 (centres undefined) | 158 °C
14 | CCCCC[C@@H](C(=O)O)c1cccc2c1OCO2 | 47 to 48 °C
15 | CCCCOC(=O)COCCCNC(=O)[C@H](C)NC(=O)OCc1ccccc1 | 54 to 55 °C
16 | CCOC(=O)C1CCN(C(=O)OC)CC1=O (centres undefined) | 36 to 38 °C
17 | CCCC(=O)Nc1cc(/C=C/C(=O)N2CC(CCl)c3ccc(NC(=O)OCc4ccc([N+](=O)[O-])cc4)cc32)n(C)c1 (centres undefined) | 207 to 210 °C
18 | CCCCCCCCCCc1ccc2cc(SC)c(OC)cc2c1 | 49.5 to 50.4 °C
19 | COC(=O)c1ccc(=O)n(CCNC(=O)c2cnccn2)c1 | 195 to 197 °C
20 | CCCCCCCNCc1cccc(OCCCNc2nc(N)nn2C)c1 | 64 to 65 °C
21 | COc1cc(C(C#Cc2c(C)nc(N)nc2N)OC)cc(OC)c1OC (centres undefined) | 127 to 129 °C
22 | COc1ccc(-c2cc(-c3sc(N)nc3-c3cccc(C)n3)ccn2)cc1 | 188 to 190 °C
23 | Cc1ccc2c(c1)C1=NNC(=O)CC1CS2 (centres undefined) | 217 to 219 °C

Row | Structure (SMILES) | melting point
24 | CCCOc1ccccc1-c1nc2cc3ncn(Cc4ccc(Cl)cc4)c3cc2c(=O)[nH]1 | 136 to 137 °C
25 | COc1cc(OC)nc(C(=O)O)n1 | 155 to 157 °C
26 | COc1ccc(S(=O)(=O)C2(CCCC#Cc3ccc(C(=O)O)cc3C)SC(=O)NC2=O)cc1 (centres undefined) | 182 to 184 °C
27 | CCCCC(=O)Nc1cccc(-n2nc(CCCC)n(Cc3ccc(-c4ccccc4S(=O)(=O)NC(=O)c4ccccc4Cl)cc3)c2=O)c1 | 102 to 105 °C
28 | Cc1ccc(C(=O)C2=C(O)C(=O)N(c3ccc(C)nn3)C2c2ccc(C(F)(F)F)cc2)cc1 (centres undefined) | 278 °C
29 | Cc1ccc(C2(c3ccc(C)cc3)CCN=C2NC(=O)c2cc(C)n[nH]2)cc1 | 243 to 245 °C
30 | CCOC(=O)C(OCOc1ccc(-c2ccc(Cl)cc2)cc1)(C(F)(F)F)C(F)(F)F | 42 to 43 °C
31 | CCCCCCCCCCCCCCCCCCOc1cc(OCCC[PH](=O)OCC)cc(N(CC(=O)O)CC(=O)O)c1 (centres undefined) | 105 to 108 °C
32 | CNS(=O)(=O)c1cscc1CO | 118 to 119 °C
33 | CC(C)(C)OC(=O)C[C@H](NC(=O)CNC(=O)c1csc(NC(=O)NCc2ccccc2)n1)C(=O)OC(C)(C)C | 111 to 114 °C
34 | CCOC(=O)c1sc(Oc2ccc(C(C)=O)c(OC)c2)c2c1CCc1cnn(C)c1-2 | 132 to 133 °C
35 | Cc1cc(C)cc(Sc2c(C(C)C)c(=O)[nH]c(=O)n2CC2=CCCC2CO)c1 (centres undefined) | 66 to 68 °C
36 | CCCCCCCCCCCCS(=O)(=O)Nc1cc(C(=O)Nc2ccccc2)ccc1OC | 156 to 157 °C
37 | CCOP(=O)(OCC)C(C)Oc1cc(-n2c(=O)cc(C(F)(F)F)n(C)c2=O)c(F)cc1Cl (centres undefined) | 103 °C
38 | CCOC(=O)c1ccc(N(Cc2ccc(Cl)cc2)C(=O)OCC)cc1 | 43 to 46 °C
39 | CC(C)CCCC(C)C1CCC2C3CC(Br)=C4CC(O)CCC4(C)C3CCC12C (centres undefined) | 155 °C
40 | Cc1cc(C)c(N[C@@H](C)C(=O)O)c(C)c1 | 318 to 320 °C
41 | Cc1cccc(Cl)c1N(C)S(=O)(=O)c1nc2scc(C)n2n1 | 178 to 180 °C
42 | CCOCCOCCOCCOc1cc(OCCCCCCCCCCCCOc2ccccc2)cc(N(CC(=O)O)CC(=O)O)c1 | 58 to 61 °C
43 | O=C(O)CCCn1sc2ccc([N+](=O)[O-])cc2c1=O | 183 to 186 °C
44 | CN(C(=O)OC(C)(C)C)c1cc(Oc2ccc(-c3nnn[nH]3)cc2)ccc1[N+](=O)[O-] | 81 to 84 °C
45 | CCOC(=O)c1cn(CC)c2cc(-c3csc(CN(CC)C(C)=O)n3)c(F)cc2c1=O | 160 to 161 °C
46 | CCCCc1ncc(CO)c(NCc2ccc(-c3ccccc3)c(-c3nnnn3C(c3ccccc3)(c3ccccc3)c3ccccc3)c2)n1 | 126 to 129 °C

Row | Structure (SMILES) | melting point
47 | [N-]=[N+]=NCC(=O)Nc1ccccc1 | 83 °C
48 | Cc1nc(NCc2ccccn2)[nH]c(=O)c1CCO | 185 °C
49 | CC(C)(NC=O)C(=O)O | 130 to 131 °C
50 | COC(=O)C(CCCNC(=N)N[N+](=O)[O-])NC(=O)CCCC(=O)NCc1ccccc1 (single isomer, unassigned; (-)) | 97 to 99 °C
51 | Cc1cc(Cl)cc(C(=O)NC(C)C)c1NC(=O)c1cc(Br)nn1-c1ncccc1Cl | 159 to 161 °C
52 | N#Cc1cccc(-c2ccc3c(c2)NC(=O)CO3)c1 | 242 °C
53 | CCC(O)(CC)c1cc(Cl)ccc1O | 76 °C
54 | Cc1c(S(=O)c2ccc([N+](=O)[O-])cc2)cc(C(C)(C)C)c(O)c1C(=O)O (centres undefined) | 201 to 202 °C
55 | COC(=O)Nc1cc(N2CC=CCC2)nc2nc(=O)on12 | 213 to 214 °C
56 | CSc1nc(O)c2c(n1)CCCS2 | 248 °C
57 | COc1ccc(C(O)(CC#N)c2ccc(OC)cc2)cc1 | 102 °C
58 | C=CC(=O)Nc1cccc2c1sc1c(Nc3cccc(Br)c3)c(C#N)cnc12 | 286 to 287 °C
59 | CC(=C(c1ccccc1)c1ccccc1)P(C(C)(C)C)C(C)(C)C | 130 to 133 °C
60 | CC(C)N(CCON=C1c2ccccc2C2CC2c2ccccc21)C(C)C (centres undefined) | 97 to 98 °C
61 | O=C1C=c2c(c3[nH]c4c(c3c3c2=CN=C3)CCCC4)C1 | > 300 °C
62 | C[C@@H](NC(=O)c1cccc(-c2ccc(Cl)cc2)c1)[C@](O)(Cn1cncn1)c1ccc(F)cc1F | 90 to 91 °C
63 | Cc1ccc([N+](=O)[O-])c2[nH]cc(CO)c(=O)c12 | 251 to 255 °C
64 | COc1ccc2c(c1)S(=O)(=O)N=CN2CCF | 123 to 128 °C
65 | CC(C)(C)OC(=O)CNc1nc(NCc2ccc(NC(=O)c3ccc(F)cc3)cc2)c2ccccc2n1 | 96 °C
66 | COCn1c(-c2nccs2)c(Cl)c2cccc([N+](=O)[O-])c21 | 106 to 107 °C
67 | C=CC1CC2=CC(=O)CCC2C2CCC3(CC)C(O)CCC3C12 (centres undefined) | 155 to 156 °C
68 | CN(O)C(=O)NCc1cccs1 | 106 to 107 °C

Second part, the compound after the results:

Row | melting point | Structure (SMILES)
69 | 58 °C | COC(=O)C1=C(C)NC(C)=C(C(=O)OCCN2CCN(c3ccccc3OC)CC2)C1c1cccc([N+](=O)[O-])c1 (centres undefined)
70 | 144 to 146 °C | COc1cc(C(=O)O)ccc1-c1ccc(-c2ccccc2)c(-c2ccc3c(c2)C(C)(C)CCC3(C)C)c1
71 | 223 °C | N=C(N)c1ccc(NC(C(=O)O)c2ccccc2OCC(=O)O)cc1 (racemic)
72 | 173 to 175 °C | Cc1cc(C(=O)O)ccc1C1=CCCCC1
73 | 189 to 190 °C | Cn1c(=Nc2ccccc2)sc2ncccc2c1=O
74 | 126 °C | COc1ccc2cccc3c2c1CCC3CNC(C)=O (centres undefined)
75 | > 260 °C | O=C1c2ccccc2C(=O)c2sc(-c3ccccn3)nc21
76 | 179 to 180 °C | COc1ccc2c(cc3n2CCc2ccccc2-3)n1
77 | 221 to 223 °C | O=c1[nH]c2ccc(C#CCCN3CCC(Cc4ccccc4)CC3)cc2[nH]1
78 | 114 to 115 °C | COC(=O)C(Cc1ccc(OCCc2nc(-c3ccccc3)oc2C)cc1)C(=O)N(C)C (centres undefined)
79 | 161 to 163 °C | Nc1ccc(-n2ncnc2-c2ccccc2)cc1
80 | 211 to 214 °C | FC(F)c1nc2ccccc2n1-c1nc(N2CCOCC2)nc(N2CCOCC2)n1
81 | 159 °C | CS(=O)COC(=O)c1oc(-c2ccccc2)cc(=O)c1Br (centres undefined)
82 | 180 to 182 °C | Nc1cc(-c2ccccc2)c(=O)n2c1-c1sccc1CC2
83 | 126 °C | CC(=O)N1CCN(c2cccc(-n3cnc4cc(C(C)O)ccc43)c2)CC1 (centres undefined)
84 | 161 to 163 °C | CCCc1nc2c(N)nc3ccccc3c2n1CCCCCC(C)=O

Row | melting point | Structure (SMILES)
85 | 138 to 139 °C | Cc1ccccc1N1C(=O)CN2C(=O)CCC21 (centres undefined)
86 | 116 to 117 °C | CC(Cc1ccccc1)(C(=O)NO)S(=O)(=O)c1cccs1 (centres undefined)
87 | 65 to 67 °C | CC(=O)N(C(C)=O)c1nsc2ccccc12
88 | 69 to 72 °C | CCOC(=O)C(CCCCOc1ccccc1)C(=O)O (centres undefined)
89 | 160 to 163 °C | CC1C=C(c2cccc(C(F)(F)F)c2)n2ncc(C#N)c2N1C(=O)CCl (centres undefined)
90 | 124 to 126 °C | CSC(C(=O)c1cc(-c2ccccc2)on1)N1CCOCC1 (centres undefined)
91 | 65 to 70 °C | CCOC(=O)Cc1csc(-c2cccc(Br)c2)n1
92 | 253 to 255 °C | CN1C(=O)CN(N=Cc2ccccc2)C1=O
93 | 172 °C | O=C(COc1cc(-c2ccc([N+](=O)[O-])cc2)nc2ccccc12)N1CCOCC1
94 | > 300 °C | Oc1cccc(-c2ccncc2)c1
95 | 75 °C | CS(=O)(=O)c1ccc2c(c1)C1(O)C(C2)SC(=Nc2ccccc2)N1c1ccccc1 (centres undefined)
96 | 114 to 116 °C | CN(C)C(=O)c1ccc2ccccc2c1/C=C/c1ccccc1
97 | 83 to 84 °C | CCCN(CCC)C(=O)CNc1nc(-c2ccccc2)nc(CC)c1C
98 | 59 °C | CO/C=C(/C(=O)OC)c1ccccc1COc1nc(C(F)(F)F)sc1C
99 | 168 to 170 °C | COc1ccc(CCC(=O)Nc2nc3c(s2)CCN(CC=Cc2cccnc2)CC3)cc1
